For series [1], the system named is SETVI. As to the kind of experiment: Herbicidal pre-emergence action (Table A5). Format: in vivo, Setaria viridis. As to conditions: visual grading after ca. 3 weeks. The essentials: (§1)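 In each pot of sandy loam, seed of a single monocot weed species was sown alongside seed of a single dicot weed species, and the seed was covered with soil.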
Series [2] deals with ECHCG. Description: Herbicidal post-emergence action (Table B3). The format is in vivo, Echinochloa crus-galli. As to conditions: application rate 1280 g/ha; rated visually after about 3 weeks. The method, boiled down:
(§2)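 Greenhouse pot assay, sandy loam soil, one weed species per pot. Application at one-leaf stage. Readout ~3 wk post-treatment: visual % activity, 100 = dead, 0 = as untreated.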

The subject of series [3] is ECHCG. As to the kind of experiment: Herbicidal pre-emergence action, section C (Table C6). Format: in vivo, Echinochloa crus-galli. As to conditions: application rate 320 g/ha; visual grading after ca. 3 weeks.
Series [4] concerns POAAN. As to the kind of experiment: Herbicidal pre-emergence action (Table A7). The format is in vivo, Poa annua. As to conditions: application rate 1280 g/ha; visual grading after ca. 3 weeks. The method, boiled down:
as §1

Series [5] relates to MATIN. As to the kind of experiment: Herbicidal pre-emergence action (Table A4). Format: in vivo, Matricaria inodora. As to conditions: application rate 1280 g/ha; visual grading after ca. 3 weeks. The essentials:
as §1

Series [6] relates to POAAN. As to the kind of experiment: Herbicidal post-emergence action (Table B7). The format is in vivo, Poa annua. As to conditions: application rate 1280 g/ha. The essentials: as §2
Series [7] relates to LOLRI. Description: Herbicidal pre-emergence action (Table A3). The format is in vivo, Lolium rigidum. As to conditions: application rate 320 g/ha; visual grading after ca. 3 weeks. The essentials:
as §1

The subject of series [8] is ECHCG. Description: Herbicidal post-emergence action, section E (Table E5). Format: in vivo, Echinochloa crus-galli. As to conditions: application rate 320 g/ha; assessed visually after ca. 3 weeks. From the text: (§3) 2 to 3 weeks after sowing, the test plants were sprayed in the single-leaf stage.
Series [9] has as its system TRZAS. Description: Pre-emergence effects on crop plants (Table D2). Format: in vivo, Triticum aestivum. As to conditions: crop plant, visual grading after ca. 3 weeks.
The test system of series [10] is ZEAMX. Description: Pre-emergence effects on crop plants (Table D1). As to conditions: crop plant; application rate 80 g/ha; visual grading after ca. 3 weeks. The format is in vivo, Zea mays.
Series [11] relates to ORYZA. As to the kind of experiment: Post-emergence effects on crop plants (Table F3). The format is in vivo, Oryza sativa. As to conditions: application rate 320 g/ha, crop plant ORYZA.
Excerpt: as §3

Series [12] relates to ECHCG. Description: Herbicidal pre-emergence action (Table A2). The format is in vivo, Echinochloa crus-galli. As to conditions: application rate 320 g/ha; visual grading after ca. 3 weeks. The method, boiled down:
as §1

For series [13], the system named is TRZAS. Description: Post-emergence effects on crop plants (Table F2). The format is in vivo, Triticum aestivum. As to conditions: application rate 320 g/ha, crop plant TRZAS.
Excerpt: as §3

In series [14] the test system is ZEAMX. Description: Post-emergence effects on crop plants (Table F1). Format: in vivo, Zea mays. As to conditions: application rate 320 g/ha, crop plant ZEAMX.
Excerpt: as §3

In series [15] the test system is SETVI. Description: Herbicidal pre-emergence action, section C (Table C10). The format is in vivo, Setaria viridis. As to conditions: visual grading after ca. 3 weeks.
Excerpt: Seeds of mono- and dicotyledonous weed plants and crop plants were sown, in plastic or organic planting pots, in sandy loam and covered with soil. The compounds according to the invention, formulated in the form of wettable powders (WP) or as emulsifiable concentrates (EC), were applied to the surface of the covering soil as aqueous suspension or emulsion, with the addition of 0.5% of an additive, at an application rate of 600 1 of water/ha (converted). Following treatment, the pots were placed in a greenhouse and kept under optimum growth conditions for the test plants.
Series [16] deals with ORYZA. Description: Pre-emergence effects on crop plants (Table D3). As to conditions: crop plant; application rate 80 g/ha; visual grading after ca. 3 weeks.
Excerpt: (§4) Seeds of mono- and dicotyledonous weed plants and crop plants were sown, in plastic or organic planting pots, in sandy loam and covered with soil. The compounds according to the invention, formulated in the form of wettable powders (WP) or as emulsifiable concentrates (EC), were applied to the surface of the covering soil as aqueous suspension or emulsion, with the addition of 0.5% of an additive, at an application rate of 600 1 of water/ha (converted).
(§5) Following treatment, the pots were placed in a greenhouse and kept under optimum growth conditions for the test plants.
Series [17] deals with ABUTH. Description: Herbicidal pre-emergence action, section C (Table C1). Format: in vivo, Abutilon theophrasti. As to conditions: application rate 320 g/ha; visual grading after ca. 3 weeks.
Series [18] deals with GLXMA. As to the kind of experiment: Pre-emergence effects on crop plants (Table D4). The format is in vivo, Glycine max. As to conditions: crop plant; application rate 320 g/ha; visual grading after ca. 3 weeks.
Series [19] has as its system DIGSA. As to the kind of experiment: Herbicidal pre-emergence action, section C (Table C5). The format is in vivo, Digitaria sanguinalis. As to conditions: application rate 320 g/ha; visual grading after ca. 3 weeks.
Series [20] deals with VERPE. Description: Herbicidal pre-emergence action (Table A11). Format: in vivo, Veronica persica. As to conditions: application rate 1280 g/ha; visual grading after ca. 3 weeks. The essentials:
as §1

Series [21] relates to BRSNW. Description: Pre-emergence effects on crop plants (Table D5). The format is in vivo, Brassica napus. As to conditions: crop plant; application rate 320 g/ha; visual grading after ca. 3 weeks.
Excerpt: as §4, §5
Series [22] has as its system BRSNW. As to the kind of experiment: Post-emergence effects on crop plants (Table F5). The format is in vivo, Brassica napus. As to conditions: application rate 320 g/ha, crop plant BRSNW.
Excerpt: as §3

Series [23] deals with VIOTR. Description: Herbicidal post-emergence action, section E (Table E10). The format is in vivo, Viola tricolor. As to conditions: application rate 320 g/ha; assessed visually after ca. 3 weeks.
Excerpt: as §3

Series [24] concerns STEME. Description: Herbicidal pre-emergence action (Table A6). The format is in vivo, Stellaria media. As to conditions: application rate 1280 g/ha; visual grading after ca. 3 weeks. The method, boiled down: as §1
In series [25] the test system is GLXMA. Description: Post-emergence effects on crop plants (Table F4). The format is in vivo, Glycine max. As to conditions: application rate 80 g/ha, crop plant GLXMA.
Excerpt: as §3

For series [26], the system named is AMARE. Description: Herbicidal pre-emergence action (Table A8). The format is in vivo, Amaranthus retroflexus. As to conditions: application rate 1280 g/ha; visual grading after ca. 3 weeks vs untreated controls (100% = plants have died off, 0% = as control plants). The source says:
Seeds of mono- and dicotyledonous weed plants were sown in plastic pots (double sowings with one species of mono- and one species of dicotyledonous weed plants per pot), in sandy loam, and covered with soil.

The test system of series [27] is VIOTR. As to the kind of experiment: Herbicidal pre-emergence action, section C (Table C12). The format is in vivo, Viola tricolor. As to conditions: application rate 80 g/ha; visual grading after ca. 3 weeks.
In series [28] the test system is ALOMY. Description: Herbicidal pre-emergence action, section C (Table C2). The format is in vivo, Alopecurus myosuroides. As to conditions: application rate 320 g/ha; visual grading after ca. 3 weeks.
In series [29] the test system is POLCO. Description: Herbicidal pre-emergence action, section C (Table C9). The format is in vivo, Polygonum convolvulus. As to conditions: application rate 320 g/ha; visual grading after ca. 3 weeks.
The test system of series [30] is VERPE. Description: Herbicidal pre-emergence action, section C (Table C11). Format: in vivo, Veronica persica. As to conditions: application rate 320 g/ha; visual grading after ca. 3 weeks.

In the case of `O=C1N(Cc2ccccc2Br)CCCC12CCCN(Cc1c(F)cccc1F)C2=O` (racemic) [I-048], the “pre-emergence activity against SETVI” value in series [1] (application rate 320 g/ha) and in [15] (application rate 80 g/ha) was 100% each time. Besides, the “post-emergence activity against ECHCG” value in [2] is 90%; in series [8], 80%. The “pre-emergence activity against ECHCG” value in [3] and in [12] was 100% each time. The “pre-emergence activity against POAAN” value in series [4] is 90%. In series [5], the “pre-emergence activity against MATIN” value came to 90%. For the same molecule, in series [6], the “post-emergence activity against POAAN” value stood at 90%. The “pre-emergence activity against LOLRI” value in series [7] is listed as 100%. Moreover, the “pre-emergence activity against TRZAS” value in [9] (application rate 80 g/ha) is reported as 0%. Besides, the “pre-emergence activity against ZEAMX” value in [10] worked out at 0%. Also, the “post-emergence activity against ORYZA” value in series [11] was determined as 0%. In addition, in [13], the “post-emergence activity against TRZAS” value stood at 20%. In addition, in series [14], the “post-emergence activity against ZEAMX” value came to 20%. In series [16], the “pre-emergence activity against ORYZA” value was 0%. In [17], the “pre-emergence activity against ABUTH” value turned out to be 90%. In addition, the “pre-emergence activity against GLXMA” value in [18] amounted to 0%.

In the case of `CC(c1ccccc1F)N1CCCC2(CCCN(C(C)c3ccccc3F)C2=O)C1=O` (stereo not drawn) [I-060], the “pre-emergence activity against SETVI” value in series [1] (application rate 1280 g/ha) and in series [15] (application rate 320 g/ha) was 100% each time. In addition, in [4], the “pre-emergence activity against POAAN” value is 100%. For the same molecule, the “pre-emergence activity against TRZAS” value in series [9] (application rate 320 g/ha) worked out at 10%. In series [19], the “pre-emergence activity against DIGSA” value is listed as 100%. In addition, in series [20], the “pre-emergence activity against VERPE” value was 90%. Moreover, the “pre-emergence activity against ZEAMX” value in series [10] is 0%. The “pre-emergence activity against BRSNW” value in [21] stood at 10%. For the same molecule, in [11], the “post-emergence activity against ORYZA” value is 0%. In addition, the “pre-emergence activity against ECHCG” value in series [12] came to 90%. In series [22], the “post-emergence activity against BRSNW” value amounted to 0%. Also, the “post-emergence activity against VIOTR” value in series [23] is reported as 90%. In addition, the “pre-emergence activity against STEME” value in series [24] is recorded as 90%. Moreover, in series [25], the “post-emergence activity against GLXMA” value is given as 0%. Also, the “post-emergence activity against TRZAS” value in series [13] is reported as 0%. The “post-emergence activity against ZEAMX” value in [14] is recorded as 10%. Moreover, in series [18], the “pre-emergence activity against GLXMA” value amounted to 10%. In addition, the “pre-emergence activity against AMARE” value in series [26] amounted to 90%.

Turning to `O=C1N(Cc2cc(F)c(F)cc2F)CCCC12CCCN(Cc1cc(F)c(F)cc1F)C2=O` (single isomer, unassigned; (+)) [I-215, (+)-2,8-bis(2,4,5-trifluorophenylmethyl)-2,8-diazaspiro[5.5]undecane-1,7-dione], the “pre-emergence activity against ECHCG” value in [3] was determined as 100%. For the same molecule, in series [27], the “pre-emergence activity against VIOTR” value came out at 90%. Besides, the “post-emergence activity against ECHCG” value in [8] was determined as 90%. Further, in series [19], the “pre-emergence activity against DIGSA” value was 100%. In [28], the “pre-emergence activity against ALOMY” value is reported as 100%. Further, the “post-emergence activity against BRSNW” value in series [22] amounted to 0%. Also, in [23], the “post-emergence activity against VIOTR” value amounted to 80%. Also, in series [13], the “post-emergence activity against TRZAS” value is reported as 0%. Moreover, the “post-emergence activity against ZEAMX” value in series [14] was 0%. In [29], the “pre-emergence activity against POLCO” value stood at 80%. Also, the “pre-emergence activity against SETVI” value in series [15] (application rate 320 g/ha) came to 100%. In addition, in series [30], the “pre-emergence activity against VERPE” value came out at 80%.

The values are drawn from patent EP4273147A1, “SUBSTITUTED SPIROLACTAMS, SALTS THEREOF AND THEIR USE AS HERBICIDALLY ACTIVE SUBSTANCES” (Bayer Aktiengesellschaft, priority 2022, dated 2023).
